Test results as given in PMC6895213, “Four New Picrotoxane-Type Sesquiterpenes From Dendrobium nobile Lindl” (Frontiers in Chemistry, 2019).

Experiments:
α-glycosidase = α-glycosidase inhibitory activity (PNPG method); format: biochemical; settings: yeast enzyme EC 3.2.1.20
Description: Optical rotations were measured on a MCP 5100 modular compact polarimeter (Anton Paar, America). IR spectra were taken on a Nicolet 380 FT-IR instrument (Thermo, USA) as KBr discs. NMR spectra were recorded on a Bruker Avance III 500 MHz NMR spectrometer (Bruker, German). ESIMS and HRESIMS were recorded with amaZon SL (Bruker) or Compact QqTOF (Bruker). ECD spectra were measured by APL Chiascan (Applied Photophysics Ltd., England). Semi-preparative HPLC was carried out using a C18 column (Cosmosil-pack, 10 × 250 mm, 5 μm, 4 mL/min, Nacalai Tesque). C18 gel (20–45 μm, Fuji SilysiSa Chemical Co., Ltd., Greenville, NC, UA), Silica gel (60–80, 200–300 mesh, Qingdao Marine Chemical Co., Ltd., Qingdao, China), Sephadex LH-20 (Merck, Kenilworth, NJ, USA) were used for column chromatograghy. α-glycosidase (Sigma-Aldrich, UA) used for the bioactivity was derived from yeast and its EINECS (EC) unmber is 3.2.1.20.
The method optimized by Jong et al. ([2007]) was performed in vitro to test the α-glucosidase inhibitory activity of compounds 1–8. Acarbose was used as positive control.
(§1) Compounds 1–8 were tested for inhibitory activity against α-glycosidase using the PNPG method and for cytotoxic effects on SGC-7901, K562, A549, BEL-7402, and Hela cell lines using the MTT method (See Supplementary Table 1 in the Supplementary Material).

BEL-7402 cell line = assay: MTT cytotoxicity assay, BEL-7402; format: cell-based; settings: MTT method, BEL-7402 cells
Description: (§2) The MTT method optimized by Mosmann ([1983]) was performed in vitro to test the cytotoxic activity of compounds 1–8. Cisplatin was used as a positive control.
as §1

K562 cell line = assay: MTT cytotoxicity assay, K562; format: cell-based; settings: MTT method, K562 cells
Description: as §2, §1

Hela cell line = assay: MTT cytotoxicity assay, Hela; format: cell-based; settings: MTT method, Hela cells
Description: as §2, §1

SGC-7901 cell line = assay: MTT cytotoxicity assay, SGC-7901; format: cell-based; settings: MTT method, SGC-7901 cells
Description: as §2, §1

A549 cell line = assay: MTT cytotoxicity assay, A549; format: cell-based; settings: MTT method, A549 cells
Description: as §2, §1

[1] = system: activated murine macrophage-like cell line RAW 264.7; design: method as in Zhang et al., 2007b; settings: activated RAW 264.7 cells; ref Zhang et al., 2007b; cited from earlier work

In the case of C[C@H]1O[C@H](O[C@H]2[C@H](O)[C@@H](O)[C@@H](O[C@H]3[C@H](O)[C@@H](O)C(O)O[C@@H]3CO)O[C@@H]2CO)[C@H](O)[C@@H](O)[C@@H]1N[C@H]1C=C(CO)[C@@H](O)[C@H](O)[C@H]1O (stereo partly shown) [Acarbose, reference compound], the IC50 (α-glycosidase) is reported as 720 µM.

Compound N.N.[Cl][Pt][Cl] [Cisplatin, reference compound] has an IC50 (BEL-7402 cell line) of 4.02 µM, an IC50 (K562 cell line) of 3.08 µM and an IC50 (Hela cell line) of 11.3 µM. For the same compound, the IC50 (SGC-7901 cell line) was 4.11 µM and the IC50 (A549 cell line) was 1.93 µM.

In the case of CC(C)C1C2OC(=O)C1C1CC=CC1(C)C2NC=O (stereo not shown) [Compound 1, Dendroterpene A], the melting point is reported as 185 to 186 °C, the IC50 (α-glycosidase) is reported as > 1000 µM and the IC50 (BEL-7402 cell line; Homo sapiens) is reported as > 50 µM. For the same compound, the IC50 (K562 cell line; Homo sapiens) was > 50 µM, the IC50 (Hela cell line; Homo sapiens) was > 50 µM and the IC50 (SGC-7901 cell line; Homo sapiens) was > 50 µM. The IC50 (A549 cell line; Homo sapiens) was > 50 µM.

In the case of CC(C)C1C2OC(=O)C1C1(O)CC=CC1(C)C2NC=O (stereo not shown) [Compound 2, Dendroterpene B], the melting point is reported as 200 to 201 °C, the IC50 (α-glycosidase) is reported as > 1000 µM and the IC50 (BEL-7402 cell line; Homo sapiens) is reported as > 50 µM. For the same compound, the IC50 (K562 cell line; Homo sapiens) was > 50 µM, the IC50 (Hela cell line; Homo sapiens) was > 50 µM and the IC50 (SGC-7901 cell line; Homo sapiens) was > 50 µM. The IC50 (A549 cell line; Homo sapiens) was > 50 µM.

In the case of CC(C)C1C2OC(=O)C1C1CCC3C(=O)OC2C31C (stereo not shown) [Compound 3, Dendroterpene C], the IC50 (α-glycosidase) is reported as 970 µM, the IC50 (BEL-7402 cell line; Homo sapiens) is reported as > 50 µM and the IC50 (K562 cell line; Homo sapiens) is reported as > 50 µM. For the same compound, the IC50 (Hela cell line; Homo sapiens) was > 50 µM, the IC50 (SGC-7901 cell line; Homo sapiens) was > 50 µM and the IC50 (A549 cell line; Homo sapiens) was > 50 µM.

With CC(C)C1C2OC(=O)C1C1CCC3(O)C(=O)OC2C13C (stereo not shown) [Compound 4, Dendroterpene D] the melting point was 167 to 168 °C, the IC50 (α-glycosidase) was > 1000 µM and the IC50 (BEL-7402 cell line; Homo sapiens) was > 50 µM. The IC50 (K562 cell line; Homo sapiens) was > 50 µM, the IC50 (Hela cell line; Homo sapiens) was > 50 µM and the IC50 (SGC-7901 cell line; Homo sapiens) was > 50 µM. For the same compound, the IC50 (A549 cell line; Homo sapiens) was > 50 µM.

Work on COc1cccc(CCc2cc(OC)c(O)c3c2C(Cc2cccc(OC)c2)c2cc(O)c(O)c(OC)c2O3)c1 (stereo not shown) [Compound 5, nobilin E] yielded an IC50 (α-glycosidase) of 30 µM, an IC50 (BEL-7402 cell line; Homo sapiens) of 20.1 µM and an IC50 (K562 cell line; Homo sapiens) of 10.4 µM. The IC50 (Hela cell line; Homo sapiens) was 22.2 µM, the IC50 (SGC-7901 cell line; Homo sapiens) was 17.3 µM and the IC50 (A549 cell line; Homo sapiens) was 29 µM. The “inhibitory effects on NO production” value [1] was “exhibited inhibitory effects on NO production”.

For COc1cccc(CC2C3=C(Oc4c2cc(O)c(O)c4OC)C(=O)c2cc(O)c4cc(O)ccc4c2C3=O)c1 (stereo not shown) [Compound 6, dendrocandin V], the IC50 (α-glycosidase) was 680 µM, the IC50 (BEL-7402 cell line; Homo sapiens) was > 50 µM and the IC50 (K562 cell line; Homo sapiens) was 28.2 µM. For the same compound, the IC50 (Hela cell line; Homo sapiens) was > 50 µM, the IC50 (SGC-7901 cell line; Homo sapiens) was > 50 µM and the IC50 (A549 cell line; Homo sapiens) was > 50 µM.

In the case of CC(=O)/C=C/[C@@]1(O)C(C)=CC(=O)CC1(C)C [Compound 7, S(+)-dehydrovomifoliol], the IC50 (α-glycosidase) is reported as > 1000 µM, the IC50 (BEL-7402 cell line; Homo sapiens) is reported as > 50 µM and the IC50 (K562 cell line; Homo sapiens) is reported as > 50 µM. The IC50 (Hela cell line; Homo sapiens) was > 50 µM, the IC50 (SGC-7901 cell line; Homo sapiens) was > 50 µM and the IC50 (A549 cell line; Homo sapiens) was > 50 µM.

With Oc1ccc(CCOCCc2ccc(O)cc2)cc1 [Compound 8, di-[2-(4-hydroxyphenyl)] ethyl ether] the IC50 (α-glycosidase) was 300 µM, the IC50 (BEL-7402 cell line; Homo sapiens) was > 50 µM and the IC50 (K562 cell line; Homo sapiens) was > 50 µM. The IC50 (Hela cell line; Homo sapiens) was > 50 µM, the IC50 (SGC-7901 cell line; Homo sapiens) was > 50 µM and the IC50 (A549 cell line; Homo sapiens) was > 50 µM.
